From patent publication US20150231147A1, “METHODS FOR ACUTE AND LONG-TERM TREATMENT OF DRUG ADDICTION” (DemeRx, Inc., priority 2014, published 2015)
Entries after “also recorded” stand apart in the source; their conditions may differ. Where two headings read alike, the source gives them in different places.

Tests used:
Format in all cases: in vivo, human
[1] = Plasma noribogaine pharmacokinetics, ascending single oral dose, healthy volunteers; conditions: for CL/F / AUC(0-inf) / Cmax / Tmax / Vd/F / AUC(0-t) / half-life: plasma; for AUC(0-inf) / Cmax / Tmax / Vd/F / AUC(0-t) / half-life: human; for AUC(0-t): read-out: AUC0-216
[2] = system: healthy, drug-free male volunteers; test: Pupillary miosis assessed by pupillometry
Experimental: (§1) Pulse oximetry and capnography data were collected continuously using a GE Carescape B650 monitoring system from 2 hours prior to dosing and until six hours after dosing, and thereafter at 12, 24, 48 and 72 hours post-dosing. […] Pupillary miosis was assessed by pupillometry.

[3] = system: healthy, drug-free male volunteers; test: Cold pressor test (analgesic effect)
Experimental: Analgesic effect was assessed based on duration of hand immersion in ice water and on visual analog scale (VAS) pain scores upon hand removal from the water bath.
(§2) Safety and tolerability of noribogaine were tested in the group of volunteers from Example 1. […] Safety evaluations included clinical monitoring, recording of adverse events (AEs), safety laboratory tests, vital signs, ECG telemetry from −2 h to 6 h after dosing, and 12-lead electrocardiograms (ECGs) up to 216 hours post-dosing.

[4] = system: healthy, drug-free male volunteers; test: Safety and tolerability of noribogaine in healthy humans (adverse events, vital signs, ECG)
Experimental: as §1, §2

[5] = system: opioid-dependent participants; test: Time to resumption of morphine (opioid substitution treatment, OST)
Experimental: The efficacy of noribogaine in humans was evaluated in opioid-dependent participants in a randomized, placebo-controlled, double-blind trial. […] See U.S. application Ser. No. 14/214,157, filed Mar. 14, 2014 and Ser. No. 14/346,655, filed Mar. 21, 2014, which are incorporated herein by reference in their entireties.
Three cohorts of nine (9) subjects (6 administered noribogaine and 3 administered placebo in each cohort) were evaluated for tolerability, pharmacokinetics, and efficacy. Cohort 1 received a single dose of 60 mg noribogaine or placebo. Cohort 2 received a single dose of 120 mg noribogaine or placebo. Cohort 3 received a single dose of 180 mg noribogaine or placebo.

[6] = system: opioid-dependent participants; test: Opiate withdrawal scales COWS, SOWS, OOWS
Experimental: Patients were evaluated based on the Clinical Opiate Withdrawal Scale (COWS), Subjective Opiate Withdrawal Scale (SOWS), and Objective Opiate Withdrawal Scale (OOWS) scoring systems over the period of time between administration of noribogaine (or placebo) until resumption of OST. These scales are outlined in Guidelines for the Psychosocially Assisted Pharmacological Treatment of Opioid Dependence, World Health Organization, Geneva (2009), Annex 10, which is incorporated herein by reference in its entirety. The scales measure the intensity of withdrawal symptoms, based on clinical, subjective, and objective indicia.

[7] = system: opioid-dependent participants; test: QT interval prolongation in opioid-dependent patients; conditions: 60, 120, 180 mg, first 24 hours post administration; correlated with serum concentration
Experimental: Patients' QT intervals were evaluated at regular time points throughout the study.

[8] = healthy male volunteers, single oral 3 mg noribogaine, mean (n = 6)
[9] = healthy male volunteers, single oral 10 mg noribogaine, mean (n = 6)
[10] = healthy male volunteers, single oral 30 mg noribogaine, mean (n = 6)
[11] = healthy male volunteers, single oral 60 mg noribogaine, mean (n = 6)
[12] = healthy volunteers, 3-60 mg single oral doses
[13] = after adjusting for baseline differences, p>0.9

CC[C@H]1CC2C[C@H]3c4[nH]c5ccc(O)cc5c4CCN(C2)C13 [Noribogaine]
CL/F [1, 8]: 41.4 L/h
CL/F [1, 9]: 42.3 L/h
CL/F [1, 10]: 46.9 L/h
CL/F [1, 11]: 34.0 L/h
Volume of distribution across dose groups [1, 12]: 1417 to 3086 L
dose dependence of Cmax and AUC [1, 12]: increased linearly with dose
time of peak concentrations after oral dosing [1, 12]: 2 to 3 h
AUC(0-inf) [1, 8]: 74.2 ng·h/mL
Cmax [1, 8]: 5.2 ng/mL
Tmax [1, 8]: 1.9 h
Vd/F [1, 8]: 2490 L
AUC(0-t) [1, 8]: 72.2 ng·h/mL
half-life ([1]; healthy male volunteers, single oral 3 mg noribogaine, mean (n = 6), read-out: t1/2 (converted)): 40.9 h
AUC(0-inf) [1, 9]: 254 ng·h/mL
Cmax [1, 9]: 14.5 ng/mL
Tmax [1, 9]: 2.9 h
Vd/F [1, 9]: 3090 L
AUC(0-t) [1, 9]: 251 ng·h/mL
half-life ([1]; healthy male volunteers, single oral 10 mg noribogaine, mean (n = 6), read-out: t1/2 (converted)): 49.2 h
AUC(0-inf) [1, 10]: 700 ng·h/mL
Cmax [1, 10]: 55.9 ng/mL
Tmax [1, 10]: 1.8 h
Vd/F [1, 10]: 1850 L
AUC(0-t) [1, 10]: 678 ng·h/mL
half-life ([1]; healthy male volunteers, single oral 30 mg noribogaine, mean (n = 6), read-out: t1/2 (converted)): 27.6 h
AUC(0-inf) [1, 11]: 1960 ng·h/mL
Cmax [1, 11]: 116 ng/mL
Tmax [1, 11]: 2.4 h
Vd/F [1, 11]: 1420 L
AUC(0-t) [1, 11]: 1940 ng·h/mL
half-life ([1]; healthy male volunteers, single oral 60 mg noribogaine, mean (n = 6), read-out: t1/2 (converted)): 29.1 h
half-life ([1]; male, healthy volunteers, 3-60 mg single oral doses, read-out: Mean half-life estimates across dose groups): 28 to 50 h
pupil diameter, each dose group compared with placebo by ANOVA [2, 13]: no statistically significant differences
pupillary constriction [2, 12]: no evidence of pupillary constriction
VAS pain scores, each dose group compared with placebo by ANOVA ([3]; after adjusting for baseline differences, p=0.17): no statistically significant differences
duration of hand immersion, each dose group compared with placebo by ANOVA [3, 13]: no statistically significant differences
analgesic effect in the cold pressor test ([3]; healthy volunteers, 3-60 mg single oral doses, 1° C. water): no analgesic effect
Adverse events, Mild ([4]; healthy volunteers, 3 mg dose): Dizziness; also recorded: Epistaxis; also recorded: Headache; also recorded: Back pain
Adverse events, Moderate ([4]; healthy volunteers, 3 mg dose): Headache
number of adverse events reported ([4]; healthy volunteers, 3 mg dose group): five adverse events were reported by two subjects
Adverse events, Mild ([4]; healthy volunteers, 10 mg dose): Headache
number of adverse events reported ([4]; healthy volunteers, 10 mg dose group): one adverse event was reported by single subjects
Adverse events, Mild ([4]; healthy volunteers, 30 mg dose): Headache
number of adverse events reported ([4]; healthy volunteers, 30 mg dose group): one adverse event was reported by single subjects
changes in oximetry, capnography, respiratory rate ([4]; healthy volunteers, 3-60 mg): no changes in oximetry or capnography, or changes in respiratory rate
changes in vital signs or safety laboratory tests ([4]; healthy volunteers, 3-60 mg): no changes in vital signs or safety laboratory tests of note
QTcF values ([4]; healthy volunteers, 3-60 mg, at any time): ≤ 500 ms
intensity of adverse events ([4]; healthy volunteers, all groups, all resolved prior to study completion): mild-moderate intensity
single increase in QTcF ([4]; one subject dosed with 10 mg, 24 hours post-dosing): > 60 ms
average time to resumption of opioids ([5]; single 120 mg dose, given 2 hours after last morphine dose): greater than 20 hours
Time to resumption of OST compared with untreated patients and 60 mg group ([5]; single 180 mg dose): still longer than untreated patients (7 hours, not shown) or those administered 60 mg noribogaine
withdrawal symptoms (COWS, OOWS, SOWS), first six hours following dosing ([6]; single 120 mg dose, compared with the other patients): generally experienced fewer withdrawal symptoms than the other patients
withdrawal symptoms (COWS, OOWS, SOWS), noribogaine compared with placebo ([6]; single 60, 120 or 180 mg dose, first six hours following dosing): Patients administered placebo generally experienced more withdrawal symptoms than patients who were administered noribogaine
QT interval prolongation (ΔQTcl) [7]: dose-dependent increase in QT interval prolongation
